ChEMBL document CHEMBL1148690, “Binding of ring-substituted indole-3-acetic acids to human serum albumin” (Bioorg Med Chem, 2007)

Experiments:
[1] = Octanol-water partition coefficient, log Kow of the compound
Albumin = Albumin (Homo sapiens, UniProt P02768); experiment: Binding affinity to human serum albumin; conditions: isolated protein
Chain of Albumin (P02768 whole entry): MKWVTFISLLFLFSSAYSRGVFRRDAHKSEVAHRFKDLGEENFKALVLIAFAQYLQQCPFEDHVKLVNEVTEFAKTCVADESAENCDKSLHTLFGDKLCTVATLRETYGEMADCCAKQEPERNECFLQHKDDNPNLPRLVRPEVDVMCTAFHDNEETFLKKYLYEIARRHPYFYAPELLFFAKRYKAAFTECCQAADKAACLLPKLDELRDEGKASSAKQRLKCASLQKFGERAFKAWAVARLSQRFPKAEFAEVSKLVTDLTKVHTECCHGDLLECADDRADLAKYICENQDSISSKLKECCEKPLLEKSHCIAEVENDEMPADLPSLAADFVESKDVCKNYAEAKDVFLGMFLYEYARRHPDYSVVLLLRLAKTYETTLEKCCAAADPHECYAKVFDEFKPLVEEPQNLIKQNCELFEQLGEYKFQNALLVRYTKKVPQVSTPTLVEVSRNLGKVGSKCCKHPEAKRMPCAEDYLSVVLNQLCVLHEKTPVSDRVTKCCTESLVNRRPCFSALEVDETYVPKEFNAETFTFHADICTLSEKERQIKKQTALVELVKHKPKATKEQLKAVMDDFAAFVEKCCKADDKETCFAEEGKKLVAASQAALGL

Compound	logP [1]	logKA (Albumin)
O=C(O)Cc1c[nH]c2ccc(O)cc12	0.74	-0.125
O=C(O)Cc1c[nH]c2ccc(Cl)cc12	2.38	0.646
O=C(O)Cc1c[nH]c2c(Cl)cccc12	2.32	0.623
O=C(O)Cc1c[nH]c2ccc(OCc3ccccc3)cc12	3.2	
O=C(O)Cc1c[nH]c2cc(Cl)cc(Cl)c12	3.29	1.082
CCCCc1ccc2[nH]cc(CC(=O)O)c2c1	3.89	1.05
Cc1ccc2c(CC(=O)O)c[nH]c2c1	1.96	0.689
O=C(O)Cc1c[nH]c2ncccc12	0.45	-0.314
COc1ccc2[nH]cc(CC(=O)O)c2c1	1.23	0.185
CCOC(=O)Cc1c[nH]c2ccccc12	2.34	0.292
Cc1ccc2[nH]cc(CC(=O)O)c2c1	1.99	0.217
O=C(O)Cc1c[nH]c2c(Cl)cc(Cl)cc12	3.42	0.983
Cc1cccc2[nH]cc(CC(=O)O)c12	1.84	0.155
Cc1[nH]c2ccccc2c1CC(=O)O	1.72	-0.04
COc1ccc2[nH]c(C)c(CC(=O)O)c2c1 [DESCHLOROBENZOYL INDOMETHACIN]	2.14	0.228
CCc1ccc2[nH]cc(CC(=O)O)c2c1	2.54	0.49
O=C(O)Cc1c[nH]c2cc(Cl)c(Cl)cc12	3.2	1.436
O=C(O)Cc1c[nH]c2cc(Cl)ccc12	2.41	0.863
Cn1cc(CC(=O)O)c2ccccc21	1.87	0.243
O=C(O)Cc1c[nH]c2ccc(F)cc12	1.72	0.261

The next lines start with the values.

logP [1]	logKA (Albumin)	Compound
2.09	0.031	CCc1[nH]c2ccccc2c1CC(=O)O
3.21	0.809	CCCc1ccc2[nH]cc(CC(=O)O)c2c1
2.56	1.044	CCc1ccc2c(CC(=O)O)c[nH]c2c1
2.56	0.15	CCCc1[nH]c2ccccc2c1CC(=O)O
2.92	0.799	O=C(O)Cc1c[nH]c2ccc(Cl)c(Cl)c12
1.66	0.305	O=C(O)Cc1c[nH]c2cccc(F)c12
1.81	0.247	O=C(O)Cc1c[nH]c2c(F)cccc12
3.16	1.09	O=C(O)Cc1c[nH]c2c(Cl)c(Cl)ccc12
1.74	0.308	O=C(O)Cc1c[nH]c2cc(F)ccc12
2.13	0.458	O=C(O)Cc1c[nH]c2cccc(Cl)c12
1.95	0.288	Cc1cccc2c(CC(=O)O)c[nH]c12
1.42	0.102	O=C(O)Cc1c[nH]c2ccccc12 [INDOLE-3-ACETIC ACID]
3.02	0.84	O=C(O)Cc1c[nH]c2c(Cl)ccc(Cl)c12
2.33	0.393	CCc1cccc2[nH]cc(CC(=O)O)c12
